Entries after “also recorded” stand apart in the source; their conditions may differ. Like-named read-outs stand apart in the source and are kept apart here.
How the values were obtained:
Assay type in all cases: cell-based
[1] = target: T1, human δ-opioid receptor, OPRD (Homo sapiens, UniProt P41143); experiment: PathHunter β-arrestin 2 assay, OPRD cell line; conditions: for OPRD β-ARR2 Emax (%): Example 3, Tables 5-7
T1 construct: host or cells: HEK-293 overexpressing β-arrestin2 fused to a β-galactosidase fragment
Source text: (§1) Human embryonic kidney 293 (HEK-293) cells which transfected overexpress (3-arrestin2 fused β-galactosidase fragment were purchased from DiscoverX. Human OPRM1 gene (NM 000914.3, encoding human μ-opioid receptor, OPRM) and Human OPRD1 gene (NM 000911.3, encoding human δ-opioid receptor, OPRD) were fused to a pCMV-ProLink plasmid which contains complementary β-galactosidase fragment purchased from DiscoverX. To generate human OPRM1 or OPRD1 expression cell lines, HEK-293 cells were transfected to prepared plasmid and grown in DMEM medium with 10% fetal bovine serum, 150 μg/mL Hygromycin B and 500 μg/mL G418.
(§2) The PathHunter enzyme assay was performed to measure the agonist's capability of β-arrestin 2 pathway activation. When agonists bind to G protein-coupled receptor (GPCR), the receptor pathway is sequentially activated from G protein to β-arrestin 2 recruitment.
(§3) Because […] β-arrestin 2 and C-terminal of GPCR have a fragment of β-galactosidase, recruitment of β-arrestin 2 to GPCR forms the whole β-galactosidase. The functionality of the whole β-galactosidase is detected by chemiluminescence (FlexStation3, Molecular Devices).
(§4) cAMP and β-arrestin assays described above were conducted to decide whether candidate compounds were μ- and/or δ-opioid receptor bias agonists for the G-protein pathway. All assays produced the concentration-response curve, and the curve data was validated by a quality control factor named Z′ factor. Because half-maximal effect concentration (EC50) depends on the population of receptors, the maximal asymptote of the concentration curve was used. Efficacy data of candidates was normalized by comparison to reference agonists DAMGO and SNC80 for OPRM and OPRD.

[2] = target: T2, human μ-opioid receptor, OPRM (Homo sapiens, UniProt P35372); experiment: Dominant assay: cAMP assay with/without irreversible antagonist β-FNA, OPRM cell line; conditions: for maximal response on decreasing receptor population (dominant tendency), in words: OPRM cell lines, β-FNA
T2 construct: host or cells: HEK-293 overexpressing β-arrestin2 fused to a β-galactosidase fragment
Source text: (§5) To confirm the agonist's efficacy in a nature-like system, we need inactivation of target receptors on the cell membrane. Most cell lines have an abundant target receptor population (also known as spare receptors). Therefore, agonists have more opportunity to constitute agonist-receptor conformation. In this environment, not only full agonists but also partial agonists can reach maximal response.
(§6) If the partial agonist is selected as a full agonist, translational in vivo research will likely fail.
(§7) Non-competitive, irreversible antagonists can be applicable to judge the pharmacological character of agonists because they permanently decrease the receptor population in the cell line system. β-FNA or β-CNA is used as a non-competitive and irreversible antagonist for OPRM, OPRD. Before cAMP assay, cells were incubated with β-FNA or β-CNA for 40 minutes. Afterwards, the procedure is the same.
(§8) If a partial agonist compound acts as a full agonist due to receptor population (pseudo full agonist), it cannot sustain maximal response with reduced receptor population. However, a full agonist compound maintains their maximal response even though increased EC50.

[3] = target: T1, human δ-opioid receptor, OPRD; experiment: Dominant assay: cAMP assay with/without irreversible antagonist β-CNA, OPRD cell line; conditions: for maximal response on decreasing receptor population (dominant tendency), in words: OPRD cell lines, β-CNA; for Emax: read-out: OPRD Gi β-CNA (+) Emax (%)
Source text: as §5, §6, §7, §8

[4] = target: T2, human μ-opioid receptor, OPRM; experiment: PathHunter β-arrestin 2 assay, OPRM cell line; conditions: for OPRM β-ARR2 Emax (%): Example 3, Tables 5-7
Source text: as §1, §2, §3, §4

[5] = addition of β-FNA, Example 3, Tables 5-7
[6] = addition of β-FNA, Example 3, Tables 5-7, read-out: OPRM Gi β-FNA (+) EC50
[7] = addition of β-FNA, repeated dominant assay, Example 4, Tables 8-10
[8] = addition of β-FNA, repeated dominant assay, Example 4, Tables 8-10, read-out: OPRM Gi β-FNA (+) EC50
[9] = no addition of β-FNA, Example 3, Tables 5-7
[10] = no addition of β-FNA, Example 3, Tables 5-7, read-out: OPRM Gi β-FNA (−) EC50
[11] = no addition of β-FNA, repeated dominant assay, Example 4, Tables 8-10
[12] = no addition of β-FNA, repeated dominant assay, Example 4, Tables 8-10, read-out: OPRM Gi β-FNA (−) EC50
[13] = addition of β-CNA, Example 3, Tables 5-7
[14] = addition of β-CNA, Example 3, Tables 5-7, read-out: OPRD Gi β-CNA (+) EC50
[15] = addition of β-CNA, repeated dominant assay, Example 4, Tables 8-10
[16] = addition of β-CNA, repeated dominant assay, Example 4, Tables 8-10, read-out: OPRD Gi β-CNA (+) EC50
[17] = no addition of β-CNA, Example 3, Tables 5-7
[18] = no addition of β-CNA, Example 3, Tables 5-7, read-out: OPRD Gi β-CNA (−) EC50
[19] = no addition of β-CNA, repeated dominant assay, Example 4, Tables 8-10
[20] = no addition of β-CNA, repeated dominant assay, Example 4, Tables 8-10, read-out: OPRD Gi β-CNA (−) EC50

T1 sequence (P41143 whole entry, the tested form may be a part): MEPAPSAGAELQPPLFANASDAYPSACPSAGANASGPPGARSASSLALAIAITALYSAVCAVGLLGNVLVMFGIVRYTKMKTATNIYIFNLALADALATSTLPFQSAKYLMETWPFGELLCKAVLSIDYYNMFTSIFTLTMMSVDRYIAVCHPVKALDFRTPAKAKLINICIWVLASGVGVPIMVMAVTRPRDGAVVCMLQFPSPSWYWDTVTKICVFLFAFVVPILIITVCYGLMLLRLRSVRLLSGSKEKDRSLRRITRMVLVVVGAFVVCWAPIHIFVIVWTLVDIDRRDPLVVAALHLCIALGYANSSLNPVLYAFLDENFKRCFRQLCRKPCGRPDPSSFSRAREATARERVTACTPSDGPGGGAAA
T2 sequence (P35372 whole entry, the tested form may be a part): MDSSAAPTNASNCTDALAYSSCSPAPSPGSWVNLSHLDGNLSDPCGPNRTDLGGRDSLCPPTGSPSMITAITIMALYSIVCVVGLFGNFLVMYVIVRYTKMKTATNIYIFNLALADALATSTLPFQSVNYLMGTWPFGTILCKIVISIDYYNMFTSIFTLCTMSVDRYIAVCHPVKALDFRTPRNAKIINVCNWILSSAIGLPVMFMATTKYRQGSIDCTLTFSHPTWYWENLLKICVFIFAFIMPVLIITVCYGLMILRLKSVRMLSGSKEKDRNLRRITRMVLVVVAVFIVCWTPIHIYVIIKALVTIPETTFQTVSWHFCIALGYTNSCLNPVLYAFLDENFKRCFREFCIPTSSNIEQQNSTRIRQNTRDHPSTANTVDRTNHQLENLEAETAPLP

For CN(C)C(CNC(=O)Cc1ccc2c(c1)OCCO2)c1ccccc1 (single isomer, unassigned) [Compound 5], the “OPRD β-ARR2 Emax (%)” value [1] was 5.7%, the “maximal response on decreasing receptor population (dominant tendency), in words” value [2] was “superior efficacy-dominant properties” and the “OPRM Gi β-FNA (+) Emax (%)” value [2, 5] was 21.91%. For the same molecule, the EC50 [2, 6] was 2.45 µM, the “OPRM Gi β-FNA (+) Emax (%)” value [2, 7] was 77.98% and the EC50 [2, 8] was 4.07 µM. The “OPRM Gi β-FNA (−) Emax (%)” value [2, 9] was 102%, the EC50 [2, 10] was 0.292 µM and the “OPRM Gi β-FNA (−) Emax (%)” value [2, 11] was 101.9%. For the same molecule, the EC50 [2, 12] was 1.65 µM, the “maximal response on decreasing receptor population (dominant tendency), in words” value [3] was “superior efficacy-dominant properties” and the “OPRD Gi β-CNA (+) Emax (%)” value [3, 13] was 79.38%. The EC50 [3, 14] was 6.1 µM, the “OPRD Gi β-CNA (+) Emax (%)” value [3, 15] was 65.27% and the EC50 [3, 16] was 8.79 µM. For the same molecule, the “OPRD Gi β-CNA (−) Emax (%)” value [3, 17] was 111%, the EC50 [3, 18] was 6.67 µM and the “OPRD Gi β-CNA (−) Emax (%)” value [3, 19] was 100%. For the same molecule, the EC50 [3, 20] was 7.33 µM and the “OPRM β-ARR2 Emax (%)” value [4] was 23.1%.

Cc1ccccc1NC(=O)NCC(c1ccc2c(c1)CCO2)N(C)C (single isomer, unassigned) [Compound 8] was tested, and the “OPRD β-ARR2 Emax (%)” value [1] was 5.1%, the “β-arrestin pathway activation / bARR2 recruitment, in words” value ([1]; OPRD) was “lower bARR2 recruitment as compared to morphine” and the EC50 [2, 6] was 14.2 µM. The Emax ([2]; addition of β-FNA, Example 3, Tables 5-7, read-out: OPRM Gi β-FNA (+) Emax (%)) was 43.2%, the EC50 [2, 8] was 7.78 µM and the Emax ([2]; addition of β-FNA, repeated dominant assay, Example 4, Tables 8-10, read-out: OPRM Gi β-FNA (+) Emax (%)) was 77.5%. The EC50 [2, 10] was 0.734 µM, the Emax ([2]; no addition of β-FNA, Example 3, Tables 5-7, read-out: OPRM Gi β-FNA (−) Emax (%)) was 84.7% and the EC50 [2, 12] was 0.219 µM. It also gave an Emax ([2]; no addition of β-FNA, repeated dominant assay, Example 4, Tables 8-10, read-out: OPRM Gi β-FNA (−) Emax (%)) of 91.6%, an EC50 [3, 14] of 35.7 µM and an Emax [3, 13] of 42.7%. The EC50 [3, 16] was 8.69 µM, the Emax [3, 15] was 42.7% and the “OPRD Gi β-CNA (−) Emax (%)” value [3, 17] was 95.54%. The EC50 [3, 18] was 15 µM, the “OPRD Gi β-CNA (−) Emax (%)” value [3, 19] was 102.7% and the EC50 [3, 20] was 16.9 µM. For the same molecule, the “OPRM β-ARR2 Emax (%)” value [4] was 5.4% and the “β-arrestin pathway activation / bARR2 recruitment, in words” value ([4]; OPRM) was “lower bARR2 recruitment as compared to morphine”.

In the case of C=CCN1C[C@H](C)N([C@H](c2ccc(C(=O)N(CC)CC)cc2)c2cccc(OC)c2)C[C@H]1C [SNC80, reference compound], the “maximal response on decreasing receptor population (dominant tendency), in words” value [3] is reported as “full agonist” and the “completeness of concentration-response curve, in words” value ([3]; OPRD system) is reported as “produced a full concentration-response curve”.

CN1CCc2cc(C(CNC(=O)Nc3ccc(F)cc3)N(C)C)ccc21 (single isomer, unassigned) [Compound 7] was tested, and the “OPRD β-ARR2 Emax (%)” value [1] was 6.4%, the “maximal response on decreasing receptor population (dominant tendency), in words” value [2] was “resistant to decreasing spare receptors; also recorded: showed efficacy dominance on both types of opioid receptors; also recorded: resistant to decreasing spare receptor-induced tendency; also recorded: maintained a higher maximal response as compared to compound 2” and the “OPRM Gi β-FNA (+) Emax (%)” value [2, 5] was 85.93%. The EC50 [2, 6] was 0.728 µM, the “OPRM Gi β-FNA (+) Emax (%)” value [2, 7] was 90.07% and the EC50 [2, 8] was 6.95 µM. The “OPRM Gi β-FNA (−) Emax (%)” value [2, 9] was 95.81%, the EC50 [2, 10] was 0.0416 µM and the “OPRM Gi β-FNA (−) Emax (%)” value [2, 11] was 100.9%. For the same molecule, the EC50 [2, 12] was 2.31 µM, the “maximal response on decreasing receptor population (dominant tendency), in words” value [3] was “resistant to decreasing spare receptors; also recorded: showed efficacy dominance on both types of opioid receptors; also recorded: resistant to decreasing spare receptor-induced tendency; also recorded: maintained a higher maximal response as compared to compound 2” and the “OPRD Gi β-CNA (+) Emax (%)” value [3, 13] was 100.2%. For the same molecule, the EC50 [3, 14] was 4.9 µM, the “OPRD Gi β-CNA (+) Emax (%)” value [3, 15] was 81.99% and the EC50 [3, 16] was 3.44 µM. For the same molecule, the “OPRD Gi β-CNA (−) Emax (%)” value [3, 17] was 98.3%, the EC50 [3, 18] was 0.517 µM and the “OPRD Gi β-CNA (−) Emax (%)” value [3, 19] was 100.2%. For the same molecule, the EC50 [3, 20] was 1.05 µM and the “OPRM β-ARR2 Emax (%)” value [4] was 22.0%.
